Source: publication PMC6152105, “NMR Insights into the Structure-Function Relationships in the Binding of Melanocortin Analogues to the MC1R Receptor” (Molecules : A Journal of Synthetic Chemistry and Natural …, 2017)
“Also recorded” adds a separate entry of the source. Read-outs that look alike come from different tables or passages of the source. Each block holds one molecule with its values, some of them ahead of it. Numbered stars: 1 amine (or outer) side, 2 acyl side, 3 side chain; on linkers, the order of the positions; unused ones are H or OH. Bridge positions count the residues as written; N and C are the ends. Square brackets hold non-standard residues; d marks the D form. Peptide text beside a SMILES is read from it. nitrobenzoyl (NO2-C6H3-CO) = nitrobenzoyl unit acylating the N-terminal His, with its aryl carbon thioether-bonded to the Cys side-chain S; X1 = O=C(c1cc([N+](=O)[O-])ccc1[*:2])[*:1]

Columns and labels:
MC1R [1] = target: T1, MC1R (Mus musculus, UniProt Q01727); test: Competitive binding assay with [125I]-NDP-α-MSH in B16F1 melanoma cells; conditions: [125I]-[Nle4,DPhe7]-α-MSH radioligand, murine melanoma B16F1 cells, in triplicate, GraphPad Prism fit, read-out: MC1R binding affinity (IC50)
T1 construct: endogenous in cells; host or cells: murine melanoma B16F1 cells
T1 sequence (Q01727 whole entry): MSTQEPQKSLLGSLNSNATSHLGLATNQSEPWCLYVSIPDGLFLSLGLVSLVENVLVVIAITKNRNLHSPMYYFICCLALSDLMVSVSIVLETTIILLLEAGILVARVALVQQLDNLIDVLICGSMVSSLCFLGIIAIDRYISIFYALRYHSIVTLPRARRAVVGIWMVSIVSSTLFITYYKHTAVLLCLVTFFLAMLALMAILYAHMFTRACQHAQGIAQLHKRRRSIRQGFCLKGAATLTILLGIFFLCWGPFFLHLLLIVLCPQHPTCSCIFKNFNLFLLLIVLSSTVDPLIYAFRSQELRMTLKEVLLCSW
Experimental: The binding affinities of the peptides CycN-K6 and CycN-K7 to MC1R were tested in a competitive binding assay using [^125I]-[Nle^4,DPhe^7]-α-MSH ([^125I]-NDP-α-MSH) as radioligand and murine melanoma B16F1 cells (Figure S1, Supplementary Materials), as previously described for other α-MSH analogues. Table 1 lists the IC50 values obtained for those two peptides, and for the 19-membered macrocyclic peptides PG10N and CycS-C6 [19, 20]. […] Therefore, a detailed structural comparison of these three peptides is required to understand the molecular basis for their binding to receptor MC1R.
NDP-α-MSH was radioiodinated as described. To determine the inhibitory concentration of 50 % (IC50) values for the α-MSH analogues, competitive binding assays with [^125I]NDP-α-MSH in B16F1 melanoma cells were carried out in triplicate following the previously described procedure. IC50 values were calculated from the plots of the percentage of [^125I]NDP-α-MSH bound to the cells vs. the concentrations of displacing peptides by using GraphPad Prism software (GraphPad Software Inc., La Jolla, CA, USA).

MC1R [2] = target: T1, MC1R; conditions: ref [20], cited from earlier work
Description: Table 1 Sequences, cycle size and MC1R binding affinities (IC50) of cyclic α-MSH analogues. | column: IC50 (nM) || Linear and cyclic analogues of the α-melanocyte stimulating hormone (α-MSH) targeting the human melanocortin receptor 1 (MC1R) are of pharmacological interest for detecting and treating melanoma. The central sequence of α-MSH (His-Phe-Arg-Trp) has been identified as being essential for receptor binding. To deepen current knowledge on the molecular basis for α-MSH bioactivity, we aimed to understand the effect of cycle size on receptor binding. To that end, we synthesised two macrocyclic isomeric α-MSH analogues, c[NH-NO2-C6H3-CO-His-DPhe-Arg-Trp-Lys]-Lys-NH2 (CycN-K6) and c[NH-NO2-C6H3-CO-His- ... || Aimed at enhancing the biological stability, potency and specificity of the endogenous ligand, a library of α-MSH analogues has been designed for imaging and therapeutic applications. […] However, replacement of the alkylthioaryl-bridge (Cy ... || (+ 1 further places)

all human MCRs = conditions: ref [19]; cited from earlier work
Description: Aimed at enhancing the biological stability, potency and specificity of the endogenous ligand, a library of α-MSH analogues has been designed for imaging and therapeutic applications. […] However, replacement of the alkylthioaryl-bridge (Cy ...

MC1R [3] = conditions: 19-membered parent peptide; ref [19]; read-out: MC1R binding affinity (IC50); cited from earlier work
Description: Table 1 Sequences, cycle size and MC1R binding affinities (IC50) of cyclic α-MSH analogues. | column: IC50 (nM)

IC50 (MC1R [1]): 495 ± 101 nM
Molecule: N=C(N)NCCC[C@@H]1NC(=O)[C@@H](Cc2ccccc2)NC(=O)[C@H](Cc2c[nH]cn2)NC(=O)c2cc([N+](=O)[O-])ccc2NCCCC[C@@H](C(N)=O)NC(=O)[C@H](CCCCN)NC(=O)[C@H](Cc2c[nH]c3ccccc23)NC1=O [CycN-K7, c[NH–NO2–C6H3–CO–His–DPhe–Arg–Trp–Lys–Lys]–NH2] (H[dF]RWKK-NH2; linker N-6 via X1)

Molecule: c[S–NO2–C6H3–CO–His–DPhe–Arg–Trp–Cys]–Lys–NH2 (sidechain bridge or staple) ({nitrobenzoyl (NO2-C6H3-CO)}-H[dF]RWCK-NH2; thioether N-5) [CycS-C6, 19-membered cyclic analogue, previously reported by the authors]
IC50 (MC1R [2]; previously reported by the authors, competitive binding, [125I]-NDP-α-MSH, B16F1 cells, read-out: MC1R binding affinity (IC50)): 1770 ± 480 nM

Molecule: c[S–NO2–C6H3–CO–His–DPhe–Arg–Trp–Cys]–Lys–NH2 (sidechain bridge or staple) [CycS-C6, 19-membered cyclic analogue, previously reported by the authors]
MC1R binding in words (MC1R [2]; relative to parent PG10N, addition of C-terminal Lys): strongly decreases affinity to MC1R; also recorded: impaired binding

Molecule: c[S–NO2–C6H3–CO–His–DPhe–Arg–Trp–Cys]–NH2 (sidechain bridge or staple) [PG10N, 19-membered alkylthioaryl-bridged macrocyclic α-MSH analogue]
agonist activity (all human MCRs): potent full agonist for all human MCRs
IC50 (MC1R [3]): 3.7 ± 0.5 nM

IC50 (MC1R [1]): 155 ± 16 nM
Molecule: N=C(N)NCCC[C@@H]1NC(=O)[C@@H](Cc2ccccc2)NC(=O)[C@H](Cc2c[nH]cn2)NC(=O)c2cc([N+](=O)[O-])ccc2NCCCC[C@@H](C(=O)N[C@@H](CCCCN)C(N)=O)NC(=O)[C@H](Cc2c[nH]c3ccccc23)NC1=O [CycN-K6, c[NH–NO2–C6H3–CO–His–DPhe–Arg–Trp–Lys]–Lys–NH2] (H[dF]RWKK-NH2; linker N-5 via X1)
